Experimental data reported in PMC12400318 (Biochemical Journal, 2025).

Legend:
[1] = molecular target: T1, T. melanesiensis CtfAB (T. mel CtfAB; WT-CtfAB) (Thermosipho melanesiensis, UniProt A6LM39+A6LM40, A6LM39:F42T/A6LM39:S45C); experiment: X-ray crystal structure, […] Å; assay type: binding
T1 construct: gene Tmel_1136; co-expressed in E. coli Rosetta 2(DE3)pLysS; N-terminal 6xHis on CtfA, untagged CtfB; subunits Mr 23-25 kDa; heterotetramer (two CtfA-CtfB heterodimers) in crystals

[2] = molecular target: T2, T. melanesiensis CtfAB (T. mel CtfAB; WT-CtfAB) (Thermosipho melanesiensis, UniProt A6LM39+A6LM40, A6LM39:E46S); settings: acetate from crystallisation buffer; second acetate in place of the catalytic glutamate carboxylate
T2 construct: gene Tmel_1136
T2 sequence (A6LM39 1-214 E46S, one chain of several): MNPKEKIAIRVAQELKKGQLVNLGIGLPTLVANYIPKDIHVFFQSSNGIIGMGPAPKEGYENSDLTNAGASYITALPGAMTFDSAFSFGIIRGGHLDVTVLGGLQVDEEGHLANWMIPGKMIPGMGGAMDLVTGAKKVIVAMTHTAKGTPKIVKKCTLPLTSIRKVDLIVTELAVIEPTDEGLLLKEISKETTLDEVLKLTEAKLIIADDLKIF

[3] = molecular target: T3, T. melanesiensis CtfAB (T. mel CtfAB; WT-CtfAB) (Thermosipho melanesiensis, UniProt A6LM39+A6LM40, A6LM39:E46D); parameters: gene Tmel_1136; settings: acetate from crystallisation buffer; pocket next to residue 46
T3 sequence (A6LM39 entry or part of it E46D, one chain of several): as the sequence (A6LM39 1-214 E46S, one chain of several) above, with S46D counted along it

[4] = molecular target: T4, T. melanesiensis CtfAB (T. mel CtfAB; WT-CtfAB) (Thermosipho melanesiensis, UniProt A6LM39+A6LM40); parameters: gene Tmel_1136; settings: rate-equation constant of substrate B (acetate) in the forward fit, not a separate inhibition assay; 100 mM Tris-HCl, 40 mM MgCl2, 5% glycerol, pH 7.5, 65 °C
T4 sequence (A6LM40 1-217): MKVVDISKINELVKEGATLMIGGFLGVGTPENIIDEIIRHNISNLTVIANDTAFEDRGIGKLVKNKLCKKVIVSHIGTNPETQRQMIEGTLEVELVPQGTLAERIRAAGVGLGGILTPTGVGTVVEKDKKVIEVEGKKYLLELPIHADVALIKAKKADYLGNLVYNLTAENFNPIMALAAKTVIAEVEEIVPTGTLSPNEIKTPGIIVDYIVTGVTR
T4 sequence (A6LM39 1-214): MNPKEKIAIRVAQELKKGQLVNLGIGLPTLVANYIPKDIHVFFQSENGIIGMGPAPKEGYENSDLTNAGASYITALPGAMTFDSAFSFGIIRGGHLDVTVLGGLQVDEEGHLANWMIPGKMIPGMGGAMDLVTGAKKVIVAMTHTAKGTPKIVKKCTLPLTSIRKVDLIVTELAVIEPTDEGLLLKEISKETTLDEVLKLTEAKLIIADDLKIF

[5] = molecular target: T3, T. melanesiensis CtfAB (T. mel CtfAB; WT-CtfAB); experiment: hydrolase activity assay; assay type: biochemical; parameters: gene Tmel_1136; co-expressed in E. coli Rosetta 2(DE3)pLysS; N-terminal 6xHis on CtfA, untagged CtfB; subunits Mr 23-25 kDa; heterotetramer (two CtfA-CtfB heterodimers) in crystals; settings: CoA hydrolase instead of transferase; acetate not required
[6] = molecular target: T4, T. melanesiensis CtfAB (T. mel CtfAB; WT-CtfAB); experiment: acetoacetyl-CoA Mg-enolate consumption at […] nm; global ping-pong bi-bi fit with inhibition; assay type: biochemical; parameters: gene Tmel_1136; co-expressed in E. coli Rosetta 2(DE3)pLysS; N-terminal 6xHis on CtfA, untagged CtfB; subunits Mr 23-25 kDa; heterotetramer (two CtfA-CtfB heterodimers) in crystals; settings: read-out: Ki,Q
[7] = substrate: CC(=O)O; experiment: purified protein; settings: forward reaction, co-substrate acetoacetyl-CoA (0.025-0.4 mM), 100 mM Tris-HCl, 40 mM MgCl2, 5% glycerol, pH 7.5, 65 °C
[8] = substrate: CC(=O)CC(=O)O; experiment: purified protein; assay type: biochemical, Thermosipho melanesiensis; settings: reverse reaction, co-substrate acetyl-CoA (0.033-0.4 mM), 100 mM Tris-HCl, 40 mM MgCl2, 5% glycerol, pH 7.5, 65 °C
[9] = substrate: CC(=O)CC(=O)SCCNC(=O)CCNC(=O)[C@H](O)C(C)(C)COP(=O)(O)OP(=O)(O)OC[C@H]1O[C@@H](n2cnc3c(N)ncnc32)[C@H](O)[C@@H]1OP(=O)(O)O; experiment: purified protein; assay type: biochemical, Thermosipho melanesiensis; settings: forward reaction, co-substrate acetate (18.75-375 mM), 100 mM Tris-HCl, 40 mM MgCl2, 5% glycerol, pH 7.5, 65 °C, abstract prints 135 μM
[10] = substrate: CC(=O)SCCNC(=O)CCNC(=O)[C@H](O)C(C)(C)COP(=O)(O)OP(=O)(O)OC[C@H]1O[C@@H](n2cnc3c(N)ncnc32)[C@H](O)[C@@H]1OP(=O)(O)O; experiment: purified protein; assay type: biochemical, Thermosipho melanesiensis; settings: reverse reaction, co-substrate acetoacetate (3.75-18.75 mM), 100 mM Tris-HCl, 40 mM MgCl2, 5% glycerol, pH 7.5, 65 °C
[11] = molecular target: the molecule itself; experiment: crystal structure; hanging drop, purified co-expressed CtfAB 5-6 mg/mL in 10 mM MOPS, 5% glycerol, 50 mM Na2SO4, 50 mM NaCl, 1 mM DTT, pH 7.5; reservoir 100 mM Na acetate pH 4.9-5.5, 6-10% PEG 3350; F42T/S45C co-crystal with 5-10 mM acetyl-CoA; space group P4(1)2(1)2

T1 sequence (A6LM39 entry or part of it F42T/S45C, one chain of several): as the sequence (A6LM39 1-214 E46S, one chain of several) above, with F42T, S45C, S46E counted along it

Which “X-ray crystal structure, 1.9 Å” value ([1]; acetate from crystallisation buffer (100 mM Na acetate), two molecules near E46, acetyl-CoA also bound) does the source give for `CC(=O)O` [acetate] here?
The value was “difference density for two acetate molecules in the CtfAB F42TS45C-CoA structure”.

What about the “X-ray crystal structure, 2.6 Å” value [2] of the same molecule?
The value was “a second acetate molecule binds in the space normally occupied by the catalytic glutamate”.

And the “X-ray crystal structure, 2.2 Å” value [3]?
The value was “Acetate molecules were identified in every CtfAB structure in the substrate-binding pocket”.

What about the “Ki,B” value [4] of the same molecule?
Its value is 24700 ± 16600 µM.

`CC(=O)CC(=O)SCCNC(=O)CCNC(=O)[C@H](O)C(C)(C)COP(=O)(O)OP(=O)(O)OC[C@H]1O[C@@H](n2cnc3c(N)ncnc32)[C@H](O)[C@@H]1OP(=O)(O)O` [acetoacetyl-CoA] was tested. Which hydrolase activity assay [5] did it give?
The hydrolase activity assay was “converted the transferase into a hydrolase, with activity confirmed on acetoacetyl-CoA”.

Which results are given for `CC(=O)SCCNC(=O)CCNC(=O)[C@H](O)C(C)(C)COP(=O)(O)OP(=O)(O)OC[C@H]1O[C@@H](n2cnc3c(N)ncnc32)[C@H](O)[C@@H]1OP(=O)(O)O` [acetyl-CoA]?
X-ray crystal structure, 1.9 Å ([1]; co-crystal with 5-10 mM acetyl-CoA, site in CtfB, pantetheine part partly disordered): A co-crystal of the mutant CtfB F42T/S45C and acetyl-CoA was grown; Ki [6]: 1270 ± 276 µM

B1: T. melanesiensis CtfAB (T. mel CtfAB; WT-CtfAB) (Thermosipho melanesiensis BI429) (protein)
chain 1: MKVVDISKINELVKEGATLMIGGFLGVGTPENIIDEIIRHNISNLTVIANDTAFEDRGIGKLVKNKLCKKVIVSHIGTNPETQRQMIEGTLEVELVPQGTLAERIRAAGVGLGGILTPTGVGTVVEKDKKVIEVEGKKYLLELPIHADVALIKAKKADYLGNLVYNLTAENFNPIMALAAKTVIAEVEEIVPTGTLSPNEIKTPGIIVDYIVTGVTR
chain 2: MNPKEKIAIRVAQELKKGQLVNLGIGLPTLVANYIPKDIHVFFQSENGIIGMGPAPKEGYENSDLTNAGASYITALPGAMTFDSAFSFGIIRGGHLDVTVLGGLQVDEEGHLANWMIPGKMIPGMGGAMDLVTGAKKVIVAMTHTAKGTPKIVKKCTLPLTSIRKVDLIVTELAVIEPTDEGLLLKEISKETTLDEVLKLTEAKLIIADDLKIF
notes: co-expressed in E. coli Rosetta 2(DE3)pLysS; N-terminal 6xHis on CtfA, untagged CtfB; subunits Mr 23-25 kDa; heterotetramer (two CtfA-CtfB heterodimers) in crystals
B1 was tested. Which Km [7] did it give?
The Km was 84700 ± 15600 µM.

What about the Km [8] of the same molecule?
Its Km is 1655 ± 331 µM.

What about the Km [9] of the same molecule?
The Km was 138 ± 28.8 µM.

And the Km [10]?
The Km was 322 ± 41 µM.

B2: Thermosipho melanesiensis CtfAB heterodimer (His6-CtfA with CtfB), wild type (complex)
chain 1: MKVVDISKINELVKEGATLMIGGFLGVGTPENIIDEIIRHNISNLTVIANDTAFEDRGIGKLVKNKLCKKVIVSHIGTNPETQRQMIEGTLEVELVPQGTLAERIRAAGVGLGGILTPTGVGTVVEKDKKVIEVEGKKYLLELPIHADVALIKAKKADYLGNLVYNLTAENFNPIMALAAKTVIAEVEEIVPTGTLSPNEIKTPGIIVDYIVTGVTR
chain 2: MNPKEKIAIRVAQELKKGQLVNLGIGLPTLVANYIPKDIHVFFQSENGIIGMGPAPKEGYENSDLTNAGASYITALPGAMTFDSAFSFGIIRGGHLDVTVLGGLQVDEEGHLANWMIPGKMIPGMGGAMDLVTGAKKVIVAMTHTAKGTPKIVKKCTLPLTSIRKVDLIVTELAVIEPTDEGLLLKEISKETTLDEVLKLTEAKLIIADDLKIF
notes: CoA transferase subunit A (CtfA) of Thermosipho melanesiensis, Tmel_1136, WP_012057350; as the chain of m1; 3-oxoacid CoA-transferase subunit B (CtfB) of Thermosipho melanesiensis, Tmel_1135, WP_012057349; as the chain of m2; Used for the self-association of the CtfAB heterodimer into a heterotetramer and higher oligomers; also called T. mel CtfAB; WT-CtfAB; not shown: His6, N-terminal, kept
How did the “stoichiometry N” value [11] turn out when B2 was run?
Its value is 2 heterodimers in the heterotetramer.
